Measured values reported in publication doi:10.1101/2021.12.13.472350v1, “An amphipathic and cationic antimicrobial peptide kills colistin resistant Gram-negative pathogens in vivo” (bioRxiv, 2021).
≈ marks a conversion by molar mass, not a printed value. Marks after values point to notes of the source that are not given here. Peptide text beside a SMILES is read from it.

Experiments:
[1] = test system: Eschericia coli ATCC 25922; format: cell-based
E. coli ATCC 25922 [2] = experiment: Time kill experiments; format: cell-based; settings: detection limit 50 CFU
E. coli ATCC 25922 [3] = experiment: In vivo sepsis/peritonitis mouse infection model; settings: NMRI mice infected IP; 10 mg/ml colistin as printed, IP at 1 and 3 h post infection
E. coli ESBL20150072 = experiment: In vivo sepsis/peritonitis mouse infection model; settings: NMRI mice infected IP
Method: Outbred female NMRI mice (NMRI; weight 26–30 g; Taconic, Denmark) were used throughout the study, as previously described ([69], [70]). […] Colistin is recommended at a dose of 5-10 mg/kg, according to the European Medicines Agency (EMA) ([71]). The animals were kept in Macrolon type III cages in groups of six and allowed free access to feed and water. Experiments were initiated after an acclimatization period of 7 days. Inoculation (bacterial infection) was performed by intraperitoneal (IP) injection of 0.5 ml bacterial suspension containing 2×10^7 CFU/ml and 5% (wt/vol) mucin (Sigma-Aldrich). During experiments, groups of eight mice per cage constituting one experimental unit were randomly assigned to treatment (5 mg/kg ChIP and 10 mg/kg ChIP or colistin 10 mg/kg and 24 mg/kg) or no treatment (vehicle). Peptide and colistin was administered as a single bolus injection IP (volume injected 0.2 ml) at 1 hours and again 3. At various times post-infection, ∼200 µL blood from the jaw/cheek was collected in Eppendorf tubes with anti-coagulate (Sarstedt, Nümbrecht, Germany). Peritoneal lavage was performed by injecting 2.0 ml of sterile physiological saline IP. After 1 minute of abdominal massage, the peritoneum was opened and peritoneal lavage fluid (PLF) withdrawn. PLF was immediately placed in an insulated 4 °C cooling box for transportation and kept on ice at 4 °C. The mouse peritonitis model was repeated in duplicates for E. coli ATCC 25922 and A. baumannii ATCC 19606 nad in triplicate for E. coli ESBL20150072, while only a single experiment was carried out on A. baumannii CR17. Animals were sacrificed at various times prior to and following infection. Data from repeated experiments were pooled for analyses. Quantification of bacterial load was performed by spot plating of blood and peritoneal fluid samples from the mice. Dilution series were made in sterile 0.9% NaCl solution, from which 20 μl was spotted on solid lactose agar plates (Bromthymole Blue plates, SSI Diagnostica). Bacterial counts were recorded after overnight incubation at 37 °C in ambient air. The detection limit was 50 CFU/ml. The clinical condition of the mice was determined using a self-developed clinical score. For this score, mouse behavior and appearance were observed and evaluated for the parameters piloerection, attitude, locomotion, breathing and curiosity and awarded a score from 0 to 5 by a blinded observer. 0 = no clinical signs, 1 = slightly ruffled fur, 2 = ruffled fur and strenuous breathing, 3 = 2 plus lethargy, 4 = 3 plus hunched posture and decreased activity, and 5 = moribund. No significant difference in the clinical score between groups was observed 2 and 4 h post treatment. All mice were recorded for score 2.

A. baumannii ATCC 19606 = experiment: In vivo sepsis/peritonitis mouse infection model; settings: NMRI mice infected IP, 10 mg/kg IP at 1 and 3 h
Eschericia coli ML-35p = settings: LacI- LacY- LacZ+, MHB-II, 37°C, ~5×10^5 CFU/ml, triplicate
Eschericia coli ST131 = settings: ST131, ESBL CTX-M-15; MHB-II, 37°C, ~5×10^5 CFU/ml, triplicate
[4] = test system: Eschericia coli BW25113 pACYC184; settings: BW25113 with pACYC184; MHB-II, 37°C, ~5×10^5 CFU/ml, triplicate
[5] = test system: Klebsiella pneumoniae ATCC 13883; settings: ATCC 13883
[6] = test system: Klebsiella pneumoniae ATCC 700603; settings: ATCC 700603, SHV-18, mucoid; MHB-II, 37°C, ~5×10^5 CFU/ml, triplicate
[7] = test system: Klebsiella pneumoniae ST512; settings: ST512, KPC-3, ΔmgrB, L-Ara4N modified, mucoid; MHB-II, 37°C, ~5×10^5 CFU/ml, triplicate
[8] = test system: Acinetobacter baumannii ATCC 19606; settings: ATCC 19606
[9] = test system: Acinetobacter baumannii CS01
[10] = test system: Acinetobacter baumannii AB167
[11] = test system: Acinetobacter baumannii AB176
[12] = test system: Acinetobacter baumannii RC64; settings: RC64, ATCC 19606 pmrB::R134C pmrB::A227V; MHB-II, 37°C, ~5×10^5 CFU/ml, triplicate
[13] = test system: Acinetobacter baumannii CR17; settings: CR17, CS01 pmrA::M12K; MHB-II, 37°C, ~5×10^5 CFU/ml, triplicate
[14] = test system: Acinetobacter baumannii AB167R; settings: AB167 lpxC::ISAba1, LPS deficient, MHB-II, 37°C, ~5×10^5 CFU/ml, triplicate
[15] = test system: Acinetobacter baumannii AB176R; settings: AB176 lpxD::G739T (ΔlpxD), LPS deficient, MHB-II, 37°C, ~5×10^5 CFU/ml, triplicate
[16] = test system: Pseudomonas aeruginosa ATCC 27853
[17] = test system: Pseudomonas aeruginosa PAO1
[18] = test system: Pseudomonas aeruginosa SNRC (PAO1 background); settings: colistin resistance evolved laboratory isolate, MHB-II, 37°C, ~5×10^5 CFU/ml, triplicate
[19] = test system: Pseudomonas aeruginosa Q5

CC[C@H](C)CCCCC(=O)N[C@@H](CCN)C(=O)N[C@H](C(=O)N[C@@H](CCN)C(=O)N[C@H]1CCNC(=O)[C@H]([C@@H](C)O)NC(=O)[C@H](CCN)NC(=O)[C@H](CCN)NC(=O)[C@H](CC(C)C)NC(=O)[C@@H](CC(C)C)NC(=O)[C@H](CCN)NC1=O)[C@@H](C)O [Colistin, colistin] (HELM PEPTIDE1{[CC[C@H](C)CCCCC(=O)[*:2]].[Dab].T.[Dab].[Dab].[Dab].[dL].L.[Dab].[Dab].T}$PEPTIDE1,PEPTIDE1,5:R3-11:R2$$$V2.0; N-terminus assumed; bridges inferred)
MIC [1]: 0.125-0.25* μg/ml | cell viability after treatment (E. coli ATCC 25922 [2]; 1xMIC): reduction in CFU to the detection limit | cell viability after treatment (E. coli ATCC 25922 [2]; 3xMIC, over the first 5 hours): reduction in CFU to the detection limit | peritoneal bacterial titers compared with ChIP 5 mg/kg (2 logs reduction, 1-5×10^5 CFU/ml) (E. coli ATCC 25922 [3]): similar | effect on peritoneal titers (E. coli ESBL20150072; 24 mg/kg IP at 1 and 3 h, mcr-1 genotype): no effect | bacterial blood stream titers (E. coli ESBL20150072; colistin 24 mg/kg, similar to vehicle control): ~1×10^6 CFU/ml | reduction of peritoneal bacterial titers relative to saline control (A. baumannii ATCC 19606; after 5 hours): 3-4 log | peritoneal bacterial titers (A. baumannii ATCC 19606; after 5 hours, saline control around 1×10^8 CFU/ml): 1×10^3-1×10^4 CFU/ml | bacterial blood titers (A. baumannii ATCC 19606; detection limit 50 CFU/ml): reduce CFU/ml to the detection limit | MIC (Eschericia coli MG1655): 0.25 µg/mL (≈ 0.214 µM) | MIC (Eschericia coli ML-35p): 0.25 µg/mL (≈ 0.214 µM) | MIC (Eschericia coli ST131): 1 µg/mL (≈ 0.855 µM) | MIC (Eschericia coli AMA 817): 0.125 µg/mL (≈ 0.107 µM) | MIC [4]: 0.5 µg/mL (≈ 0.428 µM) | MIC [5]: 0.5 µg/mL (≈ 0.428 µM) | MIC [6]: 2 µg/mL (≈ 1.71 µM) | MIC [7]: 128 µg/mL (≈ 109 µM) | MIC [8]: 0.5 µg/mL (≈ 0.428 µM) | MIC [9]: 0.5 µg/mL (≈ 0.428 µM) | MIC [10]: 0.5 µg/mL (≈ 0.428 µM) | MIC [11]: 0.5 µg/mL (≈ 0.428 µM) | MIC [12]: 64 µg/mL (≈ 54.7 µM) | MIC [13]: >256 µg/mL | MIC [14]: >256 µg/mL | MIC [15]: >256 µg/mL | MIC [16]: 1 µg/mL (≈ 0.855 µM) | MIC [17]: 0.5 µg/mL (≈ 0.428 µM) | MIC [18]: >256 µg/mL | MIC [19]: >256 µg/mL | MIC (P. aeruginosa B3-CFI): >256 µg/mL
